{"source": "patent US4822804A", "about": "“5,6,7,-trinor-4,8-inter-m-phenylene 2-nor PGI2 derivatives and anti-ulcer, anti-thrombotic and anti-hypertensive pharmaceutical compositions containing them” (Toray Industries, Inc., priority 1981, dated 1989)", "key": {"[1]": {"conditions": "as recognized in prostaglandin E1 and E2; cited from earlier work"}, "gastric juice secretion": {"system": "gastric juice secretion", "assay": "Gastric juice secretion inhibition (Shay's method), subcutaneous", "type": "in vivo"}, "gastric mucous membrane": {"system": "gastric mucous membrane", "assay": "Protection against gastric mucous membrane lesion due to alcohol (Robert's method)", "type": "in vivo", "conditions": "rat, oral", "protocol": "Gastric cytoprotection was measured according to the method of Robert et al (Gastroenterol 77, 433-443, 1979). The rats fasted overnight and were given a necrotizing agent (0.2N NaOH 1 ml/rat (Method A) or Absolute EtOH (Method B)) and killed one hour later for the examination of gastric lesions. The test drug was administered 30 minutes before the necrotizing agent. The length of the lesion was measured and expressed in terms of the ulcer index. The effect of the drug was expressed in terms of the inhibition rate against the ulcer index of a control animal."}, "[2]": {"assay": "Diarrhoea inducing action, subcutaneous", "type": "in vivo", "conditions": "up to the dose of 3 mg/kg, rat"}, "platelet rich plasma": {"system": "platelet rich plasma", "assay": "Anti-aggregatory effect in platelet rich plasma (Born's method; arachidonic acid, ADP and collagen)", "type": "cell-based", "conditions": "PRP of man or rabbit, ADP, collagen"}, "[3]": {"assay": "Arterial blood pressure of anesthetized rats, intravenous injection", "type": "in vivo", "conditions": "rat, i.v., pentobarbital anesthesia", "protocol": "Under pentobarbital anesthesia (50 mg/kg s.c.), a catheter was inserted into the carotid artery. The blood pressure was measured via a pressure transducer on a polygraph."}, "Human Platelet": {"system": "Human Platelet", "assay": "Human platelet aggregation inhibiting activity (aggregating agent ADP)", "type": "cell-based", "conditions": "human platelet rich plasma, read-out: ID50, human platelet aggregation inhibiting activity", "protocol": "Blood was collected from healthy volunteers using a disposable syringe containing 3.8% sodium citrate from the saphnous vein. The blood was centrifuged for 10 minutes at 160×g. The resultant supernatant liquid was used as platelet rich plasma (PRP). Aggregation was induced by […] ADP (Adenosine diphosphate). The inhibition rate was calculated against a control aggregation of 100%.\nED50 (effective dose 50) is defined as the dosage required to produce a response in 50% of the subjects to whom the compound is given."}, "[4]": {"conditions": "neutral aqueous solution; cited from earlier work"}}, "data": [{"compound": "CCCCC[C@H](O)/C=C/[C@H]1[C@H](O)CC(=O)[C@@H]1C/C=C\\CCCC(=O)O", "note": "[prostaglandin E2]", "values": [{"measurement": "diarrhoea inducing action of reference prostaglandins", "setting": "[1]", "result": "diarrhoea inducing actions recognized"}]}, {"compound": "CCOCC(C)(C)[C@H](O)/C=C/[C@@H]1[C@H]2c3cccc(CCCC(=O)O)c3O[C@H]2C[C@H]1O", "note": "(relative stereo) [Compound 76, 5,6,7-trinor-4,8-inter-m-phenylene-16,16-dimethyl-18,19,20-trinor-17-ethoxyPGI2]", "values": [{"measurement": "effective dose relative to the dose of prostaglandin E2, gastric juice secretion inhibition", "setting": "gastric juice secretion", "result": "0.1-0.3 times"}, {"measurement": "gastric mucous membrane protecting activity relative to prostaglandin E2", "setting": "gastric mucous membrane", "result": "0.3-1 times"}]}, {"compound": "O=C(O)CCCc1cccc2c1OC1CC(O)C(C#CC(O)C3CCCCC3)C21", "note": "(stereo not drawn) [Compound 9, 5,6,7,-trinor-4,8-inter-m-phenylene-13,14-didehydro-15-cyclohexyl-16,17,18,19,20-pentanor PGI2]", "values": [{"measurement": "diarrhoea inducing action", "setting": "[2]", "result": "do not exhibit the diarrhoea inducing actions"}, {"measurement": "anti-aggregatory effect compared with prostaglandin E1", "setting": "platelet rich plasma", "result": "comparable or stronger anti-aggregatory effect"}, {"measurement": "blood pressure reducing activity relative to prostaglandin E1", "setting": "[3]", "result": "1-2 times"}, {"measurement": "duration of blood pressure reducing activity compared with prostaglandin E1", "setting": "[3]", "result": "more prolonged duration"}]}, {"compound": "O=C(O)/C=C/Cc1cccc2c1O[C@H]1C[C@@H](O)[C@H](/C=C/[C@@H](O)c3ccccc3)[C@@H]21", "note": "(relative stereo) [Compound 97, 5,6,7-trinor-4,8-inter-m-phenylene-2,3-dehydro-16,17,18,19,20-pentanor-15-phenyl-PGI2]", "values": [{"measurement": "diarrhoea inducing action", "setting": "[2]", "result": "do not exhibit the diarrhoea inducing actions"}, {"measurement": "anti-aggregatory effect compared with prostaglandin E1", "setting": "platelet rich plasma", "result": "comparable or stronger anti-aggregatory effect"}, {"measurement": "blood pressure reducing activity relative to prostaglandin E1", "setting": "[3]", "result": "1-2 times"}, {"measurement": "duration of blood pressure reducing activity compared with prostaglandin E1", "setting": "[3]", "result": "more prolonged duration"}, {"measurement": "effective dose relative to the dose of prostaglandin E2, gastric juice secretion inhibition", "setting": "gastric juice secretion", "result": "0.1-0.3 times"}, {"measurement": "gastric mucous membrane protecting activity relative to prostaglandin E2", "setting": "gastric mucous membrane", "result": "0.3-1 times"}]}, {"compound": "CCCC(C)CC(O)C=CC1C(O)CC2Oc3c(CCCC(=O)O)cccc3C21", "note": "(stereo not drawn) [Compound 49, 5,6,7-trinor-4,8-inter-m-phenylene-17-β-methyl PGI2]", "values": [{"measurement": "diarrhoea inducing action", "setting": "[2]", "result": "do not exhibit the diarrhoea inducing actions"}, {"measurement": "anti-aggregatory effect compared with prostaglandin E1", "setting": "platelet rich plasma", "result": "comparable or stronger anti-aggregatory effect"}, {"measurement": "blood pressure reducing activity relative to prostaglandin E1", "setting": "[3]", "result": "1-2 times"}, {"measurement": "duration of blood pressure reducing activity compared with prostaglandin E1", "setting": "[3]", "result": "more prolonged duration"}]}, {"compound": "CCCCCCC(O)C#CC1C(O)CC2Oc3c(CCCC(=O)O)cccc3C21", "note": "(stereo not drawn) [Compound 6, 5,6,7,-trinor-4,8-inter-m-phenylene-13,14-didehydro-20-methyl-PGI2]", "values": [{"measurement": "diarrhoea inducing action", "setting": "[2]", "result": "do not exhibit the diarrhoea inducing actions"}, {"measurement": "anti-aggregatory effect compared with prostaglandin E1", "setting": "platelet rich plasma", "result": "comparable or stronger anti-aggregatory effect"}, {"measurement": "blood pressure reducing activity relative to prostaglandin E1", "setting": "[3]", "result": "1-2 times"}, {"measurement": "duration of blood pressure reducing activity compared with prostaglandin E1", "setting": "[3]", "result": "more prolonged duration"}]}, {"compound": "CCCC(C)C[C@H](O)/C=C/[C@@H]1[C@H]2c3cccc(CCCC(=O)O)c3O[C@H]2C[C@H]1O", "note": "(stereo partly drawn) [Compound 48, 5,6,7-trinor-4,8-inter-m-phenylene-17-α-methyl PGI2]", "values": [{"measurement": "diarrhoea inducing action", "setting": "[2]", "result": "do not exhibit the diarrhoea inducing actions"}, {"measurement": "anti-aggregatory effect compared with prostaglandin E1", "setting": "platelet rich plasma", "result": "comparable or stronger anti-aggregatory effect"}, {"measurement": "blood pressure reducing activity relative to prostaglandin E1", "setting": "[3]", "result": "1-2 times"}, {"measurement": "duration of blood pressure reducing activity compared with prostaglandin E1", "setting": "[3]", "result": "more prolonged duration"}]}, {"compound": "CCCCC(C)[C@H](O)/C=C/[C@@H]1[C@H]2c3cccc(CCC(=O)O)c3O[C@H]2C[C@H]1O", "note": "(stereo partly drawn) [5,6,7-trinor-4,8-inter-m-phenylene-2-nor-16-methyl PGI2]", "values": [{"measurement": "IC50", "setting": "Human Platelet", "result": 0.011, "unit": "mg/L"}]}, {"compound": "CCCOC[C@H](O)/C=C/[C@@H]1[C@H]2c3cccc(CCCC(=O)O)c3O[C@H]2C[C@H]1O", "note": "(relative stereo) [Compound 66, 5,6,7-trinor-4,8-inter-m-phenylene-17,18,19,20-tertranor-16-propoxy PGI.su b.2]", "values": [{"measurement": "IC50", "setting": "Human Platelet", "result": 0.49, "unit": "mg/L"}]}, {"compound": "O=C(O)CCCc1cccc2c1O[C@H]1C[C@@H](O)[C@H](/C=C/[C@@H](O)COc3ccccc3)[C@@H]21", "note": "(relative stereo) [Compound 60, 5,6,7-trinor-4,8-inter-m-phenylene-17,18,19,20-tetranor-16-phenoxy PGI2]", "values": [{"measurement": "effective dose relative to the dose of prostaglandin E2, gastric juice secretion inhibition", "setting": "gastric juice secretion", "result": "0.1-0.3 times"}]}, {"compound": "CCCCC(C)[C@H](O)/C=C/[C@@H]1[C@H]2c3cccc(CCCC(=O)O)c3O[C@H]2C[C@H]1O", "note": "(stereo partly drawn) [5,6,7-trinor-4,8-inter-m-phenylene-16-methyl PGI2]", "values": [{"measurement": "IC50", "setting": "Human Platelet", "result": 0.031, "unit": "mg/L"}]}, {"compound": "CCCCC[C@H](O)/C=C/[C@@H]1[C@H]2C/C(=C/CCCC(=O)O)O[C@H]2C[C@H]1O", "note": "[PGI2, Prostaglandin I2]", "values": [{"measurement": "stability in aqueous solution", "setting": "[4]", "result": "very unstable even in a neutral aqueous solution"}]}, {"compound": "CCC[C@H](C)C[C@H](O)/C=C/[C@@H]1[C@H]2c3cccc(CCC(=O)O)c3O[C@H]2C[C@H]1O", "note": "[5,6,7-trinor-4,8-inter-m-phenylene-2-nor-17(S)-methyl PGI2]", "values": [{"measurement": "IC50", "setting": "Human Platelet", "result": 0.0006, "unit": "mg/L"}]}, {"compound": "CCCCC(C)C[C@H](O)/C=C/[C@@H]1[C@H]2c3cccc(CCCC(=O)O)c3O[C@H]2C[C@H]1O", "note": "(stereo partly drawn) [Compound 55, 5,6,7-trinor-4,8-inter-m-phenylene-17-α-methyl-20-homo PGI2]", "values": [{"measurement": "diarrhoea inducing action", "setting": "[2]", "result": "do not exhibit the diarrhoea inducing actions"}, {"measurement": "anti-aggregatory effect compared with prostaglandin E1", "setting": "platelet rich plasma", "result": "comparable or stronger anti-aggregatory effect"}, {"measurement": "blood pressure reducing activity relative to prostaglandin E1", "setting": "[3]", "result": "1-2 times"}, {"measurement": "duration of blood pressure reducing activity compared with prostaglandin E1", "setting": "[3]", "result": "more prolonged duration"}]}, {"compound": "CCC[C@H](C)C[C@H](O)/C=C/[C@@H]1[C@H]2c3cccc(CCCC(=O)O)c3O[C@H]2C[C@H]1O", "note": "[5,6,7-trinor-4,8-inter-m-phenylene-17(S)-methyl PGI2]", "values": [{"measurement": "IC50", "setting": "Human Platelet", "result": 0.005, "unit": "mg/L"}]}, {"compound": "5,6,7-trinor-4,9-inter-m-phenylene-17,18,19,20-tetranor-16-m-chlorophenoxy PGI2 [Compound 65]", "values": [{"measurement": "effective dose in inhibiting gastric juice secretion", "setting": "gastric juice secretion", "result": "0.3 to 1", "unit": "mg/kg"}, {"measurement": "effective dose relative to the dose of prostaglandin E2, gastric juice secretion inhibition", "setting": "gastric juice secretion", "result": "0.1-0.3 times"}]}, {"compound": "CCCOC[C@H](O)/C=C/[C@@H]1[C@H]2c3cccc(CCC(=O)O)c3O[C@H]2C[C@H]1O", "note": "(relative stereo) [5,6,7-trinor-4,8-inter-m-phenylene-2,17,18,19,20-pentanor-16-propoxy PGI2]", "values": [{"measurement": "IC50", "setting": "Human Platelet", "result": 0.048, "unit": "mg/L"}]}, {"compound": "COC(=O)CCCc1cccc2c1O[C@H]1C[C@@H](O)[C@H](C#CC(O)c3ccccc3)[C@@H]21", "note": "(stereo partly drawn) [Compound 19, 5,6,7-trinor-4,8-inter-m-phenylene-13,14-didehydro-15-phenyl-16,17,18,19,20-pentanor PGI2 methyl ester]", "values": [{"measurement": "diarrhoea inducing action", "setting": "[2]", "result": "do not exhibit the diarrhoea inducing actions"}, {"measurement": "anti-aggregatory effect compared with prostaglandin E1", "setting": "platelet rich plasma", "result": "comparable or stronger anti-aggregatory effect"}, {"measurement": "blood pressure reducing activity relative to prostaglandin E1", "setting": "[3]", "result": "1-2 times"}, {"measurement": "duration of blood pressure reducing activity compared with prostaglandin E1", "setting": "[3]", "result": "more prolonged duration"}, {"measurement": "effective dose relative to the dose of prostaglandin E2, gastric juice secretion inhibition", "setting": "gastric juice secretion", "result": "0.1-0.3 times"}, {"measurement": "gastric mucous membrane protecting activity relative to prostaglandin E2", "setting": "gastric mucous membrane", "result": "0.3-1 times"}]}]}
